# Test results taken from patent US20250003994A1, “DEVICE AND METHOD FOR TREATING TISSUE OXYGEN DEFICIENT CONDITIONS” (IP SCIENCE LIMITED, priority 2021, published 2025).
# What was measured:
# Format in all cases: in vivo, human
# [1] = tested on: clinically healthy volunteers; test: Oxygen carrying capacity of plasma lipoproteins (OCCL) by catalymetry assay, one-month intake, Example 2.4; conditions: for Effect of regular intake on OCCL (in words): 4 weeks daily intake
# Method: 6 healthy volunteers (HV, 42-61 years old) and 4 CAD patients, eligible for the treadmill test (age 45-59 years old) were recruited for this study. Apart from assessing changes their electrocardiogram (ECG), pulse and blood pressure, samples and level of oxygen carrying capacity of plasma lipoproteins, OCCL, from venous blood was analyzed prior to the test and within 3-4 minutes afterward. The measurement was conducted using a catalymetry assay. In short, 10 μl of citrate plasma was added to 0.98 ml cuvette of 0.05 M phosphate buffer with 0.1 mM sodium ethylenediamine tetraacetic acid (EDTA-Na), containing 10^−6 M phenazine methosulphate and 10^−4 M nitro blue tetrazolium chloride (NBT). The reaction was initiated by adding 10 μl of 10^−4 M NADH.
# The difference in absorption at λ=560 nm between starting point and after 60 seconds was measured by spectroscopy. This difference was used to measure oxygen-depended reduction of NBT. The results of this reaction were compared with the control reaction where instead of plasma 10 μl of the reaction buffer was added. The difference in the reduction of NBT with the analyzed sample and the control was used to calculate the amount of O2 in added plasma lipoproteins.
# In this section the effects of regular intake of validated bioactive nutraceuticals on blood OCCL and tissue oxygen saturation (StO2) was evaluated.
# (§1) For this study […] clinically healthy volunteers were recruited (age 35-57 years old), 30 male and 34 female). The subjects had not taken any medication or dietary supplements prior to the experiment. The volunteers were randomized and divided into 7 groups of 8 persons each. The participants were given a one-month supply of a particular nutraceutical or pharmaceutical. […] The daily dose for each product was taken in 1 capsule with the main meal of the day. The blood and StO2 were analyzed prior the trial and after (4 weeks). OCCL was analyzed as described above.
# [2] = tested on: clinically healthy volunteers; test: Tissue oxygen saturation (StO2) by near-infrared spectroscopy with stagnant ischemia, Example 2.4; conditions: for StO2: area under hyperemic curve post occlusion; for Effect of regular intake on StO2 / peripheral tissue oxygenation (in words): 4 weeks daily intake
# Method: as §1
# Thenar eminence and forearm muscles of the patients were used as a tissue target for the assessment of StO2, or combined level of oxygenated hemoglobin and myoglobin. StO2 was assessed by continuous wavelength near-infrared spectroscopy, NIRS, with wide-gap second-derivative (In Spectra, Hutchinson Technology, MN, USA), as known in the art. The measurements were taken at different time points. The recording was initiated after 15 min of rest in a supine position, before occlusion of the brachial artery. It was then continued during stagnant ischemia induced by rapidly inflating a cuff to 50 mm Hg above systolic BP. The ischemia lasted for 3 min, and the recording period lasted for an additional 5 min, until StO2 was stabilized
# The area under the hyperemic curve, AUC, of the recorded signal for the settling time in the post occlusion period was then calculated in AUC mm, or % O2/min. All body and vascular parameters were recorded in the morning between 8 and 10 a.m.
# [3] = tested on: clinically healthy volunteers; test: Blood LDL concentration, one-month intake, Example 2.4
# Excerpt: Since oxygen solubility is higher in lipids than in aqueous media, it was interesting to examine a possible link between changes in OCCL and lipoprotein concentration in blood.
# as §1
# [4] = 4 w, daily dose in 1 capsule with main meal
# [5] = 0 w (prior the trial), 8 per group
Structure (SMILES),OCCL ([1]; 0 w (prior the trial)),"OCCL [1, 4]",StO2 ([2]; 0 w (prior the trial)) [AUC mm],"StO2 [2, 4] [AUC mm]","LDL [3, 5] [mg/dL]","LDL [3, 4] [mg/dL]",Effect of regular intake on OCCL (in words) [1],Effect of regular intake on StO2 / peripheral tissue oxygenation (in words) [2]
CC1=C(/C=C/C(C)=C/C=C/C(C)=C/C=C/C=C(C)/C=C/C=C(C)/C=C/C2=C(C)C(=O)[C@@H](O)CC2(C)C)C(C)(C)C[C@H](O)C1=O [Astaxanthin],539 ± 52 ΔE at λ = 560 nm × 10^3,770 ± 57 ΔE at λ = 560 nm × 10^3,77 ± 0.74,87 ± 0.84,153 ± 7.3,151 ± 6.2,–,–
COC1=C(OC)C(=O)C(C/C=C(\C)CC/C=C(\C)CC/C=C(\C)CC/C=C(\C)CC/C=C(\C)CC/C=C(\C)CC/C=C(\C)CC/C=C(\C)CC/C=C(\C)CCC=C(C)C)=C(C)C1=O [Coenzyme Q10],505 ± 66 ΔE at λ = 560 nm × 10^3,593 ± 64 ΔE at λ = 560 nm × 10^3,75.0 ± 7.4,84.0 ± 8.5,143 ± 5.7,140 ± 4.2,increase in OCCL,significant improvement of peripheral tissue oxygenation
CC/C=C\C/C=C\C/C=C\C/C=C\C/C=C\C/C=C\CCC(=O)O [DHA Omega 3],626 ± 34 ΔE at λ = 560 nm × 10^3,639 ± 42 ΔE at λ = 560 nm × 10^3,74 ± 0.71,76 ± 0.92,155 ± 9.2,154 ± 7.5,did not affect,did not affect
CC(C)=CCC/C(C)=C/C=C/C(C)=C/C=C/C(C)=C/C=C/C=C(C)/C=C/C=C(C)/C=C/C=C(\C)CCC=C(C)C [Lycopene],648 ± 41 ΔE at λ = 560 nm × 10^3,786 ± 39 ΔE at λ = 560 nm × 10^3,75 ± 0.73,85 ± 0.61,156 ± 6.1,135 ± 7.0,–,–
"CCC(C)(C)C(=O)O[C@H]1C[C@@H](C)C=C2C=C[C@H](C)[C@H](CC[C@@H]3C[C@@H](O)CC(=O)O3)[C@H]21 [Simvastatin, reference compound]",451 ± 51 ΔE at λ = 560 nm × 10^3,504 ± 53 ΔE at λ = 560 nm × 10^3,70 ± 0.72,73 ± 0.81,–,–,–,–
C=C1CC[C@H](O)C/C1=C/C=C1\CCC[C@]2(C)[C@@H]([C@H](C)CCCC(C)C)CC[C@@H]12 [Vitamin D3],412 ± 48 ΔE at λ = 560 nm × 10^3,443 ± 51 ΔE at λ = 560 nm × 10^3,66.8 ± 6.0,71.2 ± 6.8,156 ± 8.4,144 ± 5.9,did not affect,did not affect
